What is called pIC50 is the IC50 on a negative log10 scale, so that one unit is a factor of ten.

pEC50, pIC50: −log10 of the molar value.

The source of these data is patent US20080214844A1, “Icaritin and desmethylicaritin as anti-cancer agents” (priority 2007, published 2008).

One assay deals with SK-MEL-5. Nature of the assay: MTT cell viability assay, SK-MEL-5. It is filed as cell-based, human. The following applies: Homo sapiens, 72 h, SK-MEL-5, Skin, 3 days culture. On the procedure:
(§1) 26 cancer cell lines were grown in normal growth medium in the presence of different concentrations Icaritin or Desmethylicaritin. After culture for 3 days, the cell viability was then measured by an MTT assay. […] Some EC50s were lower than 10 uM for these two compounds. […] Whereas, normal human mammary gland epithelial cells (MCF10A) were not sensitive to Icaritin and Desmethylicaritin. These cells grew well when treated with these two compounds at a concentration of 50 uM.
For orientation: Tetrazolium dyes change colour on reduction, which living cells bring about.

For assay [1], the system named is human micro vessel endothelial cell (HMVECs). The assay is described as follows: HMVEC proliferation assay. The assay is classed as cell-based. The method, then: Icaritin is a potent inhibitor of angiogenesis. Inhibition of human micro vessel endothelial cell (HMVECs) proliferation by Icaritin was investigated. HMVEC proliferation in response to Icaritin was determined using a modified method from previously described procedures. Briefly, HMVECs fed 1 day before use (with a fresh media exchange to obtain optimal growth conditions) were trypsinized and resuspended at 5×10^4 cells/ml in EBM (Clonetics)+2% FBS+gentamicin. An equivalent number of cells (2.5×10^3) in 50 μl cell suspension was plated nonconfluently onto each well of a 96-well plate and allowed to adhere for 4 h at 37° C. Serial Icaritin dilutions were prepared in this media at 3× concentration, of which 50 μl was added to the 100 μl cell suspension already in the wells, resulting in 150 μl 1× dilutions. The plate was incubated for up to 72 h at 37° C. […] Absorbance was read at 490 nm on an ELISA plate reader with Microplate Manager (Bio-Rad, Richmond, Calif.). Proliferation curves for HMVECs were determined, and measurements were obtained and compared in the log proliferation phase, which was 3 days (t=72 h) for the conditions described. […]

Another assay has as its system SN12C. The assay is described as follows: MTT cell viability assay, SN12C. The assay is classed as cell-based, human. Conditions: Homo sapiens, 72 h, Kidney, 3 days culture. The method, then: as §1
For a further assay, the system named is MDA-MB-231. The assay is described as follows: MTT cell viability assay, MDA-MB-231. The assay is classed as cell-based, human. The following applies: Homo sapiens, 72 h, MDA-MB-231, Breast, 3 days culture. The method, then:
as §1

In another assay the test system is HT29. Nature of the assay: MTT cell viability assay, HT29. It is filed as cell-based, human. Conditions: Homo sapiens, HT-29, 72 h, HT29, Colon, 3 days culture. The method, then: as §1
The next assay deals with CCL-247. The assay is described as follows: MTT cell viability assay, CCL-247. It is filed as cell-based, human. The following applies: Homo sapiens, 72 h, CCL-247, Colon, 3 days culture. On the procedure: as §1
For a further assay, the system named is Raji. The assay is described as follows: MTT cell viability assay, Raji. The following applies: Homo sapiens, 72 h, Lymphoma, 3 days culture. The assay is classed as cell-based, human. The method, then: as §1
The next assay deals with human prostate cancer. The assay is described as follows: Human prostate cancer xenograft model. The assay is classed as in vivo. The source says: (§2) ICA was extensively biotransformed and converted to at least three metabolites: Icariside II (molecule weight=514), Icaritin (molecule weight=368), and Desmethylicaritin (molecule weight=354). […] Icaritin and Desmethylicaritin have huge potentials to be developed as novel and broad anti cancer drugs.
FIG. 1. Response of Human Prostate tumor to treatment with Icaritin and Desmethyliciarityn.
For orientation: In xenograft studies the graft and the host belong to different species.

Another assay relates to Caki-1. The assay is described as follows: MTT cell viability assay, Caki-1. It is filed as cell-based, human. The following applies: Homo sapiens, 72 h, Caki-1, Kidney, 3 days culture. On the procedure:
as §1

The subject of another assay is Widr. The assay is described as follows: MTT cell viability assay, Widr. It is filed as cell-based, human. Conditions: Homo sapiens, 72 h, Colon, 3 days culture. On the procedure:
as §1

The next assay concerns estrogen receptor. The following applies: mediated by the estrogen receptor; cited from earlier work.
In the next assay the test system is human colon cancer. Nature of the assay: Human colon cancer xenograft model. It is filed as in vivo.
Text: as §2
FIG. 3. Response of Human Colon tumor to treatment with Icaritin and Desmethyliciarityn.

The next assay relates to AU-565. The assay is described as follows: MTT cell viability assay, AU-565. The assay is classed as cell-based, human. The following applies: Homo sapiens, AU565, 72 h, AU-565, Breast, 3 days culture. The method, then: as §1
The next assay concerns LNCAP. The assay is described as follows: MTT cell viability assay, LNCAP. The following applies: Homo sapiens, 72 h, Prostate, 3 days culture. The assay is classed as cell-based, human. On the procedure:
as §1

The next assay concerns G-361. Nature of the assay: MTT cell viability assay, G-361. The following applies: Homo sapiens, 72 h, G-361, Skin, 3 days culture. The assay is classed as cell-based, human. The method, then: as §1
The next assay concerns HMVEC tube formation. The assay is described as follows: HMVEC tube formation on Matrigel. The assay is classed as cell-based, human. Conditions: 18 hours. The method, then: Endothelial cell tube formation in Matrigel is one measure of angiogenesis in vitro. The role of Icaritin in angiogenesis was assessed by determining the inhibition of HMVEC tube formation on Matrigel matrix plated onto 96-well plates. The HMVEC tube formation assay was performed as described previously. Briefly, 96-well plates were coated with 90 μL Matrigel (10 mg/mL, Collaborative Research) and incubated at 37° C. for 30 minutes to promote gelling. HMVECs (10,000 cells/sample) were resuspended in reduced growth medium (serum concentration 1% and 5 units/mL heparin) and added to each well with the indicated reagents in a final volume of 100 μL with different concentration of Icaritin. After 18 hours, the plates were fixed with Diff-Quik and at least four randomly selected fields per experimental condition were digitally recorded under bright-field illumination using a 10× objective. The mean additive length of all of the cords present in each optical field was measured using IPLab software and compared with controls using the Student's unpaired t test.

Another assay concerns human lung cancer. Nature of the assay: Human lung cancer xenograft model. The assay is classed as in vivo.
Text: as §2
FIG. 2. Response of Human Lung tumor to treatment with Icaritin and Desmethyliciarityn.

The subject of a further assay is BT-549. The assay is described as follows: MTT cell viability assay, BT-549. It is filed as cell-based, human. Conditions: Homo sapiens, 72 h, BT-549, Breast, 3 days culture. On the procedure:
as §1

In another assay the test system is A549. Nature of the assay: MTT cell viability assay, A549. It is filed as cell-based, human. The following applies: Homo sapiens, 72 h, A549, Lung, 3 days culture. The method, then: as §1
In another assay the test system is LoVo. The assay is described as follows: MTT cell viability assay, LoVo. The following applies: Homo sapiens, 72 h, Colon, 3 days culture. It is filed as cell-based, human. On the procedure:
as §1

The test system of a further assay is ACHN. Nature of the assay: MTT cell viability assay, ACHN. The assay is classed as cell-based, human. Conditions: Homo sapiens, 72 h, Kidney, 3 days culture. The method, then:
as §1

Regarding `COc1ccc(-c2oc3c(CC=C(C)C)c(O)cc(O)c3c(=O)c2O)cc1` [Icaritin], the pIC50 in the assay with SK-MEL-5 was 5.00; with SN12C, 4.80; in the assay with MDA-MB-231 it was 5.28; with HT29, 4.82; in the assay with CCL-247 it was 4.78; in the assay on Raji, 5.27. For the same molecule, the pIC50 in the assay on Caki-1 was 5.15; in the assay on Widr it was 4.97; with AU-565 it was 5.10; in the assay with LNCAP it was 5.28; with G-361, 5.16; with BT-549, 5.10. In addition, the results for the pIC50 in the assay with A549, with LoVo and in the assay on ACHN were 4.97, 4.99 and 5.02, respectively. Moreover, in [1] (10 uM, HUVECs and HMVECs), the “inhibition of proliferation and inducing cell apoptosis” value is “significant levels of inhibition”. Further, the pEC50 in assay [1] (Homo sapiens, HMVEC, 72 h, Cell Titer 96 Aqueous assay, read-out: EC50, inhibition of HMVEC proliferation) was 5.06; in the assay on HMVEC tube formation (Homo sapiens, HMVEC, read-out: EC50 to inhibit HMVEC tube formation) it was 5.24. In addition, the “human prostate cancer cell growth in vivo” value with human prostate cancer is on record as “strongly inhibiting”. Further, in the assay on estrogen receptor, the estrogenic effect entry was “week phytoestrogens”. For the same molecule, the “human colon cancer cell growth in vivo” value in the assay on human colon cancer is recorded as “strongly inhibiting”. In addition, the HMVEC tube formation entry in the assay with HMVEC tube formation (10 uM) was “completely inhibited”. Besides, the “human lung cancer cell growth in vivo” value with human lung cancer is given as “strongly inhibiting”.
